Molecules are shown by their SMILES. Values joined by “and” are separate entries in the source; they are usually repeats but may differ in a detail not shown here. Equal values may be shown once.

The target of assay [1] is Histamine H1 receptor (Homo sapiens, UniProt P35367).
Assay [2] addresses Histamine H1 receptor (Cavia porcellus, UniProt P31389).

Sequence of Histamine H1 receptor (Cavia porcellus, UniProt P31389) (P31389 whole entry): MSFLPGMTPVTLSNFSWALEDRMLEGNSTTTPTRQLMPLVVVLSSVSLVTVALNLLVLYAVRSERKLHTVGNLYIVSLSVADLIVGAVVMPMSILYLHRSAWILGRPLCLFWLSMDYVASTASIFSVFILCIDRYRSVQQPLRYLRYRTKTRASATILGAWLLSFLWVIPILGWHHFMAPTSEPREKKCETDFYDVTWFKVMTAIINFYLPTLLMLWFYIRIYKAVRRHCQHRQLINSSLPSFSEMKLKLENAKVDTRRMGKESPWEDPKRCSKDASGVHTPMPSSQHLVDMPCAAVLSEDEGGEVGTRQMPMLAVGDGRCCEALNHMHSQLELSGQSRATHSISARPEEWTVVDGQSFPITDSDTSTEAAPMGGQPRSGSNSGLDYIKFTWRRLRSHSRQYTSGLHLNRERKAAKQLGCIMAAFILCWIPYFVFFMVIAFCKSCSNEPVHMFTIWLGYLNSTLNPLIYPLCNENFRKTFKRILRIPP
Sequence of Histamine H1 receptor (Homo sapiens, UniProt P35367) (P35367 whole entry): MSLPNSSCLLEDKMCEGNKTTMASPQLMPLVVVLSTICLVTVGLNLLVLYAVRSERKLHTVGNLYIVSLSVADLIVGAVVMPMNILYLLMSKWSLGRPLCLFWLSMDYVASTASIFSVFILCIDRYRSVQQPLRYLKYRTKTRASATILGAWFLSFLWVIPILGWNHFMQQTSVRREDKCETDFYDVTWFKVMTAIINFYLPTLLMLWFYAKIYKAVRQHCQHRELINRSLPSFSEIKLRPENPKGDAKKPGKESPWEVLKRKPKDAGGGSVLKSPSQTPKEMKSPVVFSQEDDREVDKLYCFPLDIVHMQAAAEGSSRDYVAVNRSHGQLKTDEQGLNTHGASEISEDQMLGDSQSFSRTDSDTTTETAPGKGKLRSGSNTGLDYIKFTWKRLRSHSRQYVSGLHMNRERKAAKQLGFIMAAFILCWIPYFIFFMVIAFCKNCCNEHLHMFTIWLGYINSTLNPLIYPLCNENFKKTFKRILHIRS

As for `N=C(NCCCc1c[nH]cn1)NC(=O)CCCc1ccccc1` [UR-AK67], the values for the Ki at Histamine H1 receptor [1] and at Histamine H1 receptor [2] were 14000 nM and 2200 nM, respectively.
Regarding `NC(=NCCCc1cnc[nH]1)NC(=O)CC1CCCCC1` [UR-AK62], the figures for the Ki at Histamine H1 receptor [1] and at Histamine H1 receptor [2] were 7000 nM and 4700 nM, respectively.
On to `CC(C(=O)NC(N)=NCCCc1cnc[nH]1)c1ccccc1` (configuration not stated) [UR-AK68], for which the Ki (in general, the equilibrium dissociation constant of an inhibitor or competing ligand from its target) on Histamine H1 receptor [1] came to 3500 nM.
As for `N=C(NCCCc1c[nH]cn1)NC(=O)CCCCc1ccccc1` [UR-AK22], the Ki was 2900 nM on Histamine H1 receptor [1] and 440 nM on Histamine H1 receptor [2].
For `N=C(NCCCc1c[nH]cn1)NC(=O)CCCC1CCCCC1` [UR-AK64] the same measures were 990 nM and 350 nM.
As for `CC(CC(=O)NC(N)=NCCCc1cnc[nH]1)C1CCCCC1` (configuration not stated) [UR-AK24], the Ki at Histamine H1 receptor [2] was 2600 nM and 1600 nM.
For the molecule `CC(C(=O)NC(N)=NCCCc1cnc[nH]1)C1CCCCC1` (configuration not stated) [UR-AK59], the Ki is 6000 nM and 2300 nM at Histamine H1 receptor [1]; 11000 nM on Histamine H1 receptor [2].

The values are drawn from BindingDB's records for doi:10.1124/jpet.106.102897 (University of Kansas, 2006).
